Data: patent US20090196861A1, “Biocompatible Latent Emulsifiers” (BIOAVAILABILITY, INC., priority 2005, published 2009)

What was measured:
[1] = Water solubility at neutral pH; type: physicochemical; details: inferred from pKa
From the text: Rudnic et al. point out that short chain fatty acids are ionized at neutral pH, giving them a […] solubility, and imply that long chain fatty acids are not ionized and, thus, are even less soluble in water. […] Further, medium to long chain (C8 to C22) fatty acids have very limited water solubility; when mixing with water these fatty acids tend to separate from water completely just as oil or fat do.

[2] = measured to be as high as (Kanicky, 2002); cited from earlier work

water solubility [1]: essentially water insoluble
Structure (SMILES): CCCCCCCC/C=C\CCCCCCCC(=O)O [oleic acid]
pKa [2]: ≤ 9.85
